Results published in ChEMBL document CHEMBL5335843, “Application of tobramycin benzyl ether as an antibiotic adjuvant capable of sensitizing multidrug-resistant Gram-negative bacteria to rifampicin” (2024).

What was measured:
Type in all cases: functional
Acinetobacter baumannii [1] = assay: Antibiotic adjuvant activity against multi-drug resistant Acinetobacter baumannii clinical isolate AB031 assessed as fractional inhibitory concentration index incubated for 18 hrs in presence of Rifampicin by two fold broth microdilution checkerboard assay
Pseudomonas aeruginosa [2] = assay: Antibiotic adjuvant activity against multi-drug resistant Pseudomonas aeruginosa clinical isolate PA262 assessed as inhibition of bacterial growth incubated for 18 hrs in presence of doxycycline by two fold broth microdilution checkerboard assay
Acinetobacter baumannii [3] = assay: Antibiotic adjuvant activity against Acinetobacter baumannii ATCC 17978 assessed as fold potentiation incubated for 18 hrs in presence of rifampicin and CAMHB Mg2+ media by two fold broth microdilution checkerboard assay
Escherichia coli [4] = assay: Antibiotic adjuvant activity against multi-drug resistant Escherichia coli clinical isolate EC107115 assessed as inhibition of bacterial growth incubated for 18 hrs in presence of doxycycline by two fold broth microdilution checkerboard assay
Pseudomonas aeruginosa [5] = assay: Antibiotic adjuvant activity against multi-drug resistant Pseudomonas aeruginosa clinical isolate PA264 assessed as fold potentiation incubated for 18 hrs in presence of doxycycline by two fold broth microdilution checkerboard assay
Escherichia coli [6] = assay: Antibiotic adjuvant activity against multi-drug resistant Escherichia coli clinical isolate EC107115 assessed as fractional inhibitory concentration index incubated for 18 hrs in presence of doxycycline by two fold broth microdilution checkerboard assay
Escherichia coli [7] = assay: Antibiotic adjuvant activity against multi-drug resistant Escherichia coli clinical isolate 107115 assessed as rifampicin MIC incubated for 18 hrs in presence of Rifampicin by two fold broth microdilution checkerboard assay
Acinetobacter baumannii [8] = assay: Antibacterial activity against multi-drug resistant Acinetobacter baumannii clinical isolate 110193 assessed as inhibition of bacterial growth incubated for 18 hrs by two fold broth microdilution assay
Pseudomonas aeruginosa [9] = assay: Antibiotic adjuvant activity against multi-drug resistant Pseudomonas aeruginosa clinical isolate PA264 assessed as inhibition of bacterial growth incubated for 18 hrs in presence of minocycline by two fold broth microdilution checkerboard assay
Pseudomonas aeruginosa [10] = assay: Antibiotic adjuvant activity against multi-drug resistant Pseudomonas aeruginosa clinical isolate PA259 assessed as inhibition of bacterial growth incubated for 18 hrs in presence of minocycline by two fold broth microdilution checkerboard assay
Acinetobacter baumannii [11] = assay: Antibiotic adjuvant activity against multi-drug resistant Acinetobacter baumannii clinical isolate 110193 assessed as fractional inhibitory concentration index incubated for 18 hrs in presence of Rifampicin by two fold broth microdilution checkerboard assay
Pseudomonas aeruginosa [12] = assay: Antibiotic adjuvant activity against multi-drug resistant Pseudomonas aeruginosa clinical isolate PA114228 assessed as inhibition of bacterial growth incubated for 18 hrs in presence of minocycline by two fold broth microdilution checkerboard assay
Escherichia coli [13] = assay: Antibiotic adjuvant activity against Escherichia coli ATCC 25922 assessed as doxycycline MIC incubated for 18 hrs in presence of doxycycline by two fold broth microdilution checkerboard assay
Pseudomonas aeruginosa [14] = assay: Antibiotic adjuvant activity against multi-drug resistant Pseudomonas aeruginosa clinical isolate 101243 assessed as inhibition of bacterial growth incubated for 18 hrs in presence of Rifampicin by two fold broth microdilution checkerboard assay
Acinetobacter baumannii [15] = assay: Antibiotic adjuvant activity against multi-drug resistant Acinetobacter baumannii clinical isolate 110193 assessed as inhibition of bacterial growth incubated for 18 hrs in presence of Rifampicin by two fold broth microdilution checkerboard assay
Pseudomonas aeruginosa [16] = assay: Antibiotic adjuvant activity against multi-drug resistant Pseudomonas aeruginosa clinical isolate PA262 assessed as inhibition of bacterial growth incubated for 18 hrs in presence of minocycline by two fold broth microdilution checkerboard assay
Pseudomonas aeruginosa [17] = assay: Antibiotic adjuvant activity against multi-drug resistant Pseudomonas aeruginosa clinical isolate PA101243 assessed as fractional inhibitory concentration index incubated for 18 hrs in presence of minocycline by two fold broth microdilution checkerboard assay
Pseudomonas aeruginosa [18] = assay: Antibiotic adjuvant activity against multi-drug resistant Pseudomonas aeruginosa clinical isolate PA114228 assessed as fractional inhibitory concentration index incubated for 18 hrs in presence of doxycycline by two fold broth microdilution checkerboard assay
Pseudomonas aeruginosa [19] = assay: Antibiotic adjuvant activity against multi-drug resistant Pseudomonas aeruginosa clinical isolate 101243 assessed as rifampicin MIC incubated for 18 hrs in presence of Rifampicin by two fold broth microdilution checkerboard assay
Escherichia coli [20] = assay: Antibiotic adjuvant activity against multi-drug resistant Escherichia coli clinical isolate EC107115 assessed as inhibition of bacterial growth incubated for 18 hrs in presence of minocycline by two fold broth microdilution checkerboard assay
Pseudomonas aeruginosa [21] = assay: Antibacterial activity against multi-drug resistant Pseudomonas aeruginosa clinical isolate 101243 assessed as inhibition of bacterial growth incubated for 18 hrs by two fold broth microdilution assay
Escherichia coli [22] = assay: Antibiotic adjuvant activity against multi-drug resistant Escherichia coli clinical isolate EC94474 assessed as fractional inhibitory concentration index incubated for 18 hrs in presence of minocycline by two fold broth microdilution checkerboard assay
Escherichia coli [23] = assay: Antibiotic adjuvant activity against multi-drug resistant Escherichia coli clinical isolate 107115 assessed as fold potentiation incubated for 18 hrs in presence of Rifampicin by two fold broth microdilution checkerboard assay
Pseudomonas aeruginosa [24] = assay: Antibiotic adjuvant activity against multi-drug resistant Pseudomonas aeruginosa clinical isolate PA262 assessed as doxycycline MIC incubated for 18 hrs in presence of doxycycline by two fold broth microdilution checkerboard assay
Enterococcus faecium = assay: Antibiotic adjuvant activity against Enterococcus faecium 114278 assessed as fold potentiation incubated for 18 hrs in presence of rifampicin by two fold broth microdilution checkerboard assay
Acinetobacter baumannii [25] = assay: Antibacterial activity against Acinetobacter baumannii ATCC 17978 assessed as inhibition of bacterial growth incubated for 18 hrs by two fold broth microdilution assay
Pseudomonas aeruginosa [26] = assay: Antibacterial activity against multi-drug resistant Pseudomonas aeruginosa clinical isolate PA259 assessed as inhibition of bacterial growth incubated for 18 hrs by two fold broth microdilution assay
Pseudomonas aeruginosa [27] = assay: Antibiotic adjuvant activity against multi-drug resistant Pseudomonas aeruginosa clinical isolate PA262 assessed as fold potentiation incubated for 18 hrs in presence of Rifampicin by two fold broth microdilution checkerboard assay
Acinetobacter baumannii [28] = assay: Antibiotic adjuvant activity against multi-drug resistant Acinetobacter baumannii clinical isolate AB031 assessed as inhibition of bacterial growth incubated for 18 hrs in presence of Rifampicin by two fold broth microdilution checkerboard assay
Pseudomonas aeruginosa [29] = assay: Antibiotic adjuvant activity against multi-drug resistant Pseudomonas aeruginosa clinical isolate 114228 assessed as rifampicin MIC incubated for 18 hrs in presence of Rifampicin by two fold broth microdilution checkerboard assay
Pseudomonas aeruginosa [30] = assay: Antibacterial activity against multi-drug resistant Pseudomonas aeruginosa clinical isolate PA101243 assessed as inhibition of bacterial growth incubated for 18 hrs by two fold broth microdilution assay
Pseudomonas aeruginosa [31] = assay: Antibiotic adjuvant activity against multi-drug resistant Pseudomonas aeruginosa clinical isolate PA114228 assessed as doxycycline MIC incubated for 18 hrs in presence of doxycycline by two fold broth microdilution checkerboard assay
Staphylococcus aureus = assay: Antibiotic adjuvant activity against methicilin-resistant Staphylococcus aureus assessed as rifampicin MIC incubated for 18 hrs in presence of rifampicin by two fold broth microdilution checkerboard assay
Pseudomonas aeruginosa [32] = assay: Antibiotic adjuvant activity against multi-drug resistant Pseudomonas aeruginosa clinical isolate PA101243 assessed as inhibition of bacterial growth incubated for 18 hrs in presence of doxycycline by two fold broth microdilution checkerboard assay
Escherichia coli [33] = assay: Antibiotic adjuvant activity against multi-drug resistant Escherichia coli clinical isolate EC107115 assessed as fractional inhibitory concentration index incubated for 18 hrs in presence of minocycline by two fold broth microdilution checkerboard assay

`Cl.NC[C@H]1O[C@H](O[C@H]2[C@H](OCc3ccccc3)[C@@H](O[C@H]3O[C@H](COCc4ccccc4)[C@@H](OCc4ccccc4)[C@H](N)[C@H]3OCc3ccccc3)[C@H](N)C[C@@H]2N)[C@H](N)C[C@@H]1OCc1ccccc1` was tested, and the “fractional inhibitory concentration index (FICI)” value (Acinetobacter baumannii [1]) was 0.251, the MIC (Pseudomonas aeruginosa [2]) was 8 µg/mL and the fold change (FC) (Acinetobacter baumannii [3]) was 16. The MIC (Escherichia coli [4]) was 8 µg/mL, the “fold change (FC)” value (Pseudomonas aeruginosa [5]) was 1 and the “fractional inhibitory concentration index (FICI)” value (Escherichia coli [6]) was 0.313. The MIC (Escherichia coli [7]) was 0.125 µg/mL, the MIC (Acinetobacter baumannii [8]) was 64 µg/mL and the MIC (Pseudomonas aeruginosa [9]) was 8 µg/mL. For the same molecule, the MIC (Pseudomonas aeruginosa [10]) was 8 µg/mL, the “fractional inhibitory concentration index (FICI)” value (Acinetobacter baumannii [11]) was 0.126 and the MIC (Pseudomonas aeruginosa [12]) was 8 µg/mL. For the same molecule, the MIC (Escherichia coli [13]) was 0.125 µg/mL, the MIC (Pseudomonas aeruginosa [14]) was 8 µg/mL and the MIC (Acinetobacter baumannii [15]) was 8 µg/mL. The MIC (Pseudomonas aeruginosa [16]) was 8 µg/mL, the “fractional inhibitory concentration index (FICI)” value (Pseudomonas aeruginosa [17]) was 1.063 and the “fractional inhibitory concentration index (FICI)” value (Pseudomonas aeruginosa [18]) was 1.063. It also gave an MIC (Pseudomonas aeruginosa [19]) of 0.004 µg/mL, an MIC (Escherichia coli [20]) of 8 µg/mL and an MIC (Pseudomonas aeruginosa [21]) of 64 µg/mL. For the same molecule, the “fractional inhibitory concentration index (FICI)” value (Escherichia coli [22]) was 0.094, the “fold change (FC)” value (Escherichia coli [23]) was 1024 and the MIC (Pseudomonas aeruginosa [24]) was 512 µg/mL. The “fold change (FC)” value (Enterococcus faecium) was 1, the MIC (Acinetobacter baumannii [25]) was 64 µg/mL and the MIC (Pseudomonas aeruginosa [26]) was 128 µg/mL. The “fold change (FC)” value (Pseudomonas aeruginosa [27]) was 1, the MIC (Acinetobacter baumannii [28]) was 8 µg/mL and the MIC (Pseudomonas aeruginosa [29]) was 16 µg/mL. The MIC (Pseudomonas aeruginosa [30]) was 64 µg/mL, the MIC (Pseudomonas aeruginosa [31]) was > 128 µg/mL and the MIC (Staphylococcus aureus) was 256 µg/mL. For the same molecule, the MIC (Pseudomonas aeruginosa [32]) was 8 µg/mL and the “fractional inhibitory concentration index (FICI)” value (Escherichia coli [33]) was 0.078.
